Patent US12522583B2, “Benzimidazole derivatives and aza-benzimidazole derivatives as Janus kinase 2 inhibitors and uses thereof” (Dana-Farber Cancer Institute, Inc., priority 2018, dated 2026)
pIC50: −log10 of the molar value.

test system: cell lines or patient-derived xenografts from patients with CRLF2-rearranged B-ALL; assay: not given; settings: cited from earlier work

| SMILES | pIC50 |
| --- | --- |
| N#CC[C@H](C1CCCC1)n1cc(-c2ncnc3[nH]ccc23)cn1 [Ruxolitinib] | < 4.70 |

biological target: JAK2 (Homo sapiens (Human), UniProt O60674); assay: JAK2 Z-Lyte biochemical assay; settings: not given
Protocol: Example 3. JAK2 Z-Lyte Biochemical Assay of the Compounds of the Present Disclosure
The JAK2 Z-Lyte biochemical assay was performed according to manufacturer's instructions (Life Technologies).

JAK2, sequence (O60674 whole entry): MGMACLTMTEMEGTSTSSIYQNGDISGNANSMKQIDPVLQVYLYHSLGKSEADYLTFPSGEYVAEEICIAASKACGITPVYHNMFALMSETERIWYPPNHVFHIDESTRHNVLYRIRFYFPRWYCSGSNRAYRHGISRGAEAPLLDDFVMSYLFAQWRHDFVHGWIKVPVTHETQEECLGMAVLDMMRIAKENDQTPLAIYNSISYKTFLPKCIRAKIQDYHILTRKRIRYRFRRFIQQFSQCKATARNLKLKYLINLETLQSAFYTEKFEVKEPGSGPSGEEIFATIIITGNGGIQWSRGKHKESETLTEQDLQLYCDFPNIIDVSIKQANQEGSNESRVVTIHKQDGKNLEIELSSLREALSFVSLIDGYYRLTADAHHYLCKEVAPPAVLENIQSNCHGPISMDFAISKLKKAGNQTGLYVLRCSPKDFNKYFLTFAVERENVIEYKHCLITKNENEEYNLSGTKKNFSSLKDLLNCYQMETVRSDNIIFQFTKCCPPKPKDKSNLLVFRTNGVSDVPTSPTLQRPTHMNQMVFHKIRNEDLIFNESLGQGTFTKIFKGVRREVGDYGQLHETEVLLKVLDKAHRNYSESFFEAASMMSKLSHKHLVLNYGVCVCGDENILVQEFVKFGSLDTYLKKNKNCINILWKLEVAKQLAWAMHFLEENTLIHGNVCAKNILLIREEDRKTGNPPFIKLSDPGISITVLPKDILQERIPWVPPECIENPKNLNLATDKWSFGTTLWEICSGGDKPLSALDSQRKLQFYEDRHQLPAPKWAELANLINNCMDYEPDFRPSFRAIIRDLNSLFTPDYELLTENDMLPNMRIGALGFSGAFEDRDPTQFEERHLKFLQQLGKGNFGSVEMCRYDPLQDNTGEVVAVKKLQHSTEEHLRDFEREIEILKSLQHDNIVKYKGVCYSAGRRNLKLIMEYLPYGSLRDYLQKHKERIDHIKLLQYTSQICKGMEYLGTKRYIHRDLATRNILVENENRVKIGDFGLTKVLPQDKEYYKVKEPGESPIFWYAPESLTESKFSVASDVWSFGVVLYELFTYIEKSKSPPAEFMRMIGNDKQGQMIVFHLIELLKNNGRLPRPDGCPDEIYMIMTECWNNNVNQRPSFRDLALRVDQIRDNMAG

| pIC50 | SMILES |
| --- | --- |
| 5.51 | CC(=O)Nc1cc(Oc2ccc3nc(Nc4ccc(F)cc4F)n(C)c3c2)ccn1 [Compound I-1, N-(4-(2-(2,4-difluorophenylamino)-1-methyl-1H-benzo[d]imidazol-6-yloxy)pyridin-2-yl)acetamide] |
| 6.02 | CCN1CCN(Cc2cc(Nc3nc4ccc(Oc5ccnc(NC(C)=O)c5)cc4n3C)cc(C(F)(F)F)c2)CC1 [Compound I-3, N-(4-(2-(3-((4-ethylpiperazin-1-yl)methyl)-5-(trifluoromethyl)phenylamino)-1-methyl-1H-benzo[d]imidazol-6-yloxy)pyridin-2-yl)acetamide] |
| 6.35 | CC(=O)Nc1cc(Oc2ccc3nc(Nc4ccc(F)cc4F)[nH]c3c2C)ccn1 [Compound I-4, N-(4-(2-(2,4-difluorophenylamino)-4-methyl-1H-benzo[d]imidazol-5-yloxy)pyridin-2-yl)acetamide] |
| 5.98 | CCN1CCN(Cc2ccc(Nc3nc4ccc(Oc5ccnc(NC(C)=O)c5)c(C)c4[nH]3)cc2C(F)(F)F)CC1 [Compound I-5, N-(4-(2-(4-((4-ethylpiperazin-1-yl)methyl)-3-(trifluoromethyl)phenylamino)-4-methyl-1H-benzo[d]imidazol-5-yloxy)pyridin-2-yl)acetamide] |
| 5.07 | CCN1CCN(Cc2ccc(Nc3nc4cc(Oc5ccnc(NC(C)=O)c5)ccc4n3C)cc2C(F)(F)F)CC1 [Compound I-7, N-(4-(2-(4-((4-ethylpiperazin-1-yl)methyl)-3-(trifluoromethyl)phenylamino)-1-methyl-1H-benzo[d]imidazol-5-yloxy)pyridin-2-yl)acetamide] |
| 7.03 | CC(=O)Nc1cc(Oc2ccc3c(c2)nc(Nc2ccc(F)cc2F)n3C)ccn1 [Compound I-8, N-(4-(2-(2,4-difluorophenylamino)-1-methyl-1H-benzo[d]imidazol-5-yloxy)pyridin-2-yl)acetamide] |
| 5.67 | CCN1CCN(Cc2cc(Nc3nc4cc(Oc5ccnc(NC(C)=O)c5)ccc4n3C)cc(C(F)(F)F)c2)CC1 [Compound I-9, N-(4-(2-(3-((4-ethylpiperazin-1-yl)methyl)-5-(trifluoromethyl)phenylamino)-1-methyl-1H-benzo[d]imidazol-5-yloxy)pyridin-2-yl)acetamide] |
| < 5.00 | CC(=O)Nc1cc(Oc2ncc3[nH]c(Nc4ccc(F)cc4F)nc3n2)ccn1 [Compound I-10, N-(4-(8-(2,4-difluorophenylamino)-7H-purin-2-yloxy)pyridin-2-yl)acetamide] |
| < 5.00 | CC(=O)Nc1cc(Oc2ccc3nc(Nc4ccc(F)cc4F)nn3c2)ccn1 [Compound I-11, N-(4-(2-(2,4-difluorophenylamino)-[1,2,4]triazolo[1,5-a]pyridin-6-yloxy)pyridin-2-yl)acetamide] |
| < 5.00 | CC(=O)Nc1cc(Oc2ccc3nc(Nc4ccc(F)cc4F)n(C)c3n2)ccn1 [Compound I-12, N-(4-(2-(2,4-difluorophenylamino)-3-methyl-3H-imidazo[4,5-b]pyridin-5-yloxy)pyridin-2-yl)acetamide] |
| < 5.00 | COC(=O)c1cc(Oc2ccc3nc(Nc4ccc(F)cc4F)n(C)c3n2)ccn1 [Compound I-13, Methyl 4-((2-((2,4-difluorophenyl)amino)-3-methyl-3H-imidazo[4,5-b]pyridin-5-yl)oxy) picolinate] |
| < 5.00 | Cn1c(Nc2ccc(F)cc2F)nc2ccc(Oc3ccnc(C(=O)O)c3)nc21 [Compound I-14, 4-((2-((2,4-difluorophenyl)amino)-3-methyl-3H-imidazo[4,5-b]pyridin-5-yl)oxy)picolinic acid] |
| 5.87 | CCN1CCN(Cc2ccc(Nc3nc4ccc(Oc5ccnc(NC(C)=O)c5)nc4n3C)cc2C(F)(F)F)CC1 [Compound I-15, N-(4-((2-((4-((4-ethylpiperazin-1-yl)methyl)-3-(trifluoromethyl)phenyl)amino)-3-methyl-3H-imidazo[4,5-b]pyridin-5-yl)oxy)pyridin-2-yl)acetamide] |
| < 5.00 | CCN1CCN(Cc2ccc(Nc3nc4nc(Oc5ccnc(NC(C)=O)c5)ncc4[nH]3)cc2C(F)(F)F)CC1 [Compound I-16, N-(4-((8-((4-((4-ethylpiperazin-1-yl)methyl)-3-(trifluoromethyl)phenyl)amino)-7H-purin-2-yl)oxy)pyridin-2-yl)acetamide] |
| 5.22 | CCN1CCN(Cc2ccc(Nc3nc4ccc(Oc5ccnc(NC(=O)C6CCOCC6)c5)cc4n3C)cc2C(F)(F)F)CC1 [Compound I-18, N-(4-(2-(4-((4-ethylpiperazin-1-yl)methyl)-3-(trifluoromethyl)phenylamino)-3-methyl-3H-benzo[d]imidazol-5-yloxy)pyridin-2-yl)-tetrahydro-2H-pyran-4-carboxamide] |
| 5.10 | CCN1CCN(Cc2ccc(Nc3nc4ccc(Oc5ccnc(NC(=O)C6CCN(C)CC6)c5)cc4n3C)cc2C(F)(F)F)CC1 [Compound I-19, N-(4-(2-(4-((4-ethylpiperazin-1-yl)methyl)-3-(trifluoromethyl)phenylamino)-3-methyl-3H-benzo[d]imidazol-5-yloxy)pyridin-2-yl)-1-methylpiperidine-4-carboxamide] |
| 5.71 | CCN1CCN(Cc2ccc(Nc3nc4ccc(Oc5ccnc(N)c5)cc4n3C)cc2C(F)(F)F)CC1 [Compound I-20, 6-(2-aminopyridin-4-yloxy)-N-(4-((4-ethylpiperazin-1-yl)methyl)-3-(trifluoromethyl)phenyl)-1-methyl-1H-benzo[d]imidazol-2-amine] |
| 5.31 | CCN1CCN(Cc2ccc(Nc3nc4ccc(Oc5ccnc(NC(=O)CCN(C)C)c5)cc4n3C)cc2C(F)(F)F)CC1 [Compound I-21, 3-(dimethylamino)-N-(4-(2-(4-((4-ethylpiperazin-1-yl)methyl)-3-(trifluoromethyl)phenylamino)-3-methyl-3H-benzo[d]imidazol-5-yloxy)pyridin-2-yl)propanamide] |
| < 5.00 | CCN1CCN(Cc2ccc(Nc3nc4ccc(Oc5ccc(O)nc5)cc4n3C)cc2C(F)(F)F)CC1 [Compound I-22, 5-((2-((4-((4-ethylpiperazin-1-yl)methyl)-3-(trifluoromethyl)phenyl)amino)-1-methyl-1H-benzo[d]imidazol-6-yl)oxy)pyridin-2(1H)-one] |
| < 5.00 | Cn1c(Nc2ccc(F)cc2F)nc2ccc(Oc3ccc(O)nc3)cc21 [Compound I-23] |
